Drawing on paper PMC5161641 (Nature, 2016), this text covers Ki and Kd for two compounds.

Each structure is given as a SMILES string. Changes are numbered by the printed parent chain.

The target of test [1] is T1, human P2X3 receptor (hP2X3-MFC) (Homo sapiens, UniProt P56373).
T1 sequence (P56373 6-364): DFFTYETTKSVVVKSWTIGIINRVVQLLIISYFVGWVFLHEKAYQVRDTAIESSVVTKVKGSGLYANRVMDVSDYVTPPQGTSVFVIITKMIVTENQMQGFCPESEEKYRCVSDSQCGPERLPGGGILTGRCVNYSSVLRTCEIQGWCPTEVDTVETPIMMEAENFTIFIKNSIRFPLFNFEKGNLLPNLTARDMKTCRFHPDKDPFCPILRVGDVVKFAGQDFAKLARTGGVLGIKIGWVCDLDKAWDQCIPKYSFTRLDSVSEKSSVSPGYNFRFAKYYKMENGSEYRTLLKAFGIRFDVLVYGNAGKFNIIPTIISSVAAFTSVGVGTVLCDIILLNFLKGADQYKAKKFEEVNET
As to the kind of experiment: X-ray structure of soaked crystal. The format is binding.

The target in test [2] is T2, human P2X3 receptor (hP2X3-MFCslow) (Homo sapiens, UniProt P56373, T13P/S15V/V16I).
T2 sequence (P56373 6-364 T13P/S15V/V16I): T1 sequence (P56373 6-364) with T8P, S10V, V11I
As to the kind of experiment: SPA 3H-ATP saturation binding.

The target of test [3] is T1, human P2X3 receptor (hP2X3-MFC). The experiment in a line: SPA 3H-ATP saturation binding.

What is called Ki is a measure of affinity in units of concentration, obtained from inhibition or displacement. The low end stands for a stronger hold on the target, the high end for a looser hold on the target. Take `CSc1nc(N)c2ncn([C@@H]3O[C@H](COP(=O)(O)OP(=O)(O)OP(=O)(O)O)[C@@H](O)[C@H]3O)c2n1` [2-methylthio-ATP, 2-(methylthio)adenosine 5′-triphosphate]: in test [1], the affinity, expressed as Ki, was 1.9 ± 0.1 nM.

As a reminder, the Kd is the equilibrium constant for the complex coming apart. A lower Kd goes with a tighter complex. Turning to `Nc1ncnc2c1ncn2[C@@H]1O[C@H](COP(=O)(O)OP(=O)(O)OP(=O)(O)O)[C@@H](O)[C@H]1O` [ATP], the Kd is 3.3 ± 0.3 nM in test [2] and 2.8 ± 0.1 nM in test [3].
